Laboratory results from patent US20260258084A1, “New Peptides as Selective IL-23 Receptor Antagonists” (Sanofi, priority 2022, published 2026).
Starred links: 1 amine or outer side, 2 acyl side, 3 side chain; linkers in the order of their positions; H or OH if unused. Positions of bridges follow the written chain, without caps; N, C: chain ends. Non-standard residues stand in square brackets, D forms with d. Residues, ends and D or L forms follow the SMILES beside them. *: point of attachment. Trp(7-Me) = Cc1cccc2c(C[C@H](N)C(=O)O)c[nH]c12; αMeLys(Me2) = CN(C)CCCC[C@](C)(N)C(=O)O; 2Nal = N[C@@H](Cc1ccc2ccccc2c1)C(=O)O; NMe5Ava = CN(CCCCC(=O)[*:2])[*:1]; 3Pal = N[C@@H](Cc1cccnc1)C(=O)O; αMeL = CC(C)C[C@](C)(N)C(=O)O; Suc = O=C(CCC(=O)[*:2])[*:1]; Me2NCH2CH2 = CN(C)CC*; Aib = CC(C)(N)C(=O)O; Ava = NCCCCC(=O)O; Sar = CNCC(=O)O

How the values were obtained:
[1] = target: T1, human interleukin-23 receptor (recombinant human IL-23R-Fc chimera) (Homo sapiens, UniProt Q5VWK5); experiment: Human ELISA IL23/IL23R (assay for specific human IL23R antagonists); type: binding; settings: Table 10; read-out: Human ELISA IL23/IL23R IC50
T1 construct: Fc (IgG Fc fusion)
How it was run: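 Competition format: peptide dilutions compete for IL23R-Fc chimera (0.1 μg/ml final, 60 min, room temperature) binding to immobilized human IL23 coated at […] overnight at 4 °C. Read-out is fluorogenic HRP signal from goat anti-hu-IgG1 detecting captured receptor.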

Pepsin = test system: T2, Pepsin; experiment: Protease stability in simulated gastric fluid (Pepsin-SGF, FaSSGF); type: in vitro ADME; settings: simulated gastric fluid with pepsin (Pepsin-SGF), 60 min, 1 μM peptide, 37° C., read-out: FaSSGF 60 (min), remaining percent of peptide
T2 construct: purchased Merck Millipore
Method: (§1) Studies were carried out in simulated intestinal fluid (SIF) and simulated gastric fluid (SGF) to evaluate gastric stability of the peptide compounds disclosed herein.
For clarification the term “Pepsin-SGF” refers to a solution of simulated gastric fluid containing pepsin whereas “SGF media” refers to a solution of simulated gastric fluid without pepsin. Pepsin-SGF was prepared by dissolving 320 mg Pepsin (Merck Millipore) in 100 mL SGF media concentrate (ProSense).
(§2) Peptides were first dissolved at 1 mM stock concentration in 0.01 HCl (+/−10% of DMSO) and were than diluted further with water to a stock concentration of 20 μM. Final peptide concentration in the incubation was 1 μM.
(§3) To 76 μL of the Pepsin-SGF buffer, 4 μL of the 20 μM peptide stock solution was added and incubated at 37° C. At each timepoint (0, 60, 120 and 240 minutes) the reaction was quenched with addition of 80 μL Ethanol (0.1% HCOOH). The samples were centrifuged for 20 minutes and an aliquot of the supernatant 100 μL were transferred to a LoBind-MTP plate and analyzed by LCMS/MS. The peak area response was calculated at each time point for each test compound. As internal reference, the peak area response of the same test compound at TO was calculated. The percent remaining at each timepoint was calculated based on the peak area response ratio of the test compound at TO. Time 0 was set to 100%, and all later timepoints were calculated relative to time 0.

Pancreatin = experiment: Protease stability in simulated intestinal fluid (Pancreatin-SIF, FaSSIF); type: in vitro ADME; settings: 1 μM peptide, 37° C.; for remaining at 1 h, 1 µM: 60 min, read-out: FaSSIF 60 (min), remaining percent of peptide; for remaining at 2 h, 1 µM: 120 min, read-out: FaSSIF 120 (min), remaining percent of peptide; for remaining at 4 h, 1 µM: 240 min, read-out: FaSSIF 240 (min), remaining percent of peptide
Method: as §1
Similarly, the term “Pancreatin-SIF” refers to a solution of simulated intestinal fluid containing pancreatin whereas “SIF-media” refers to a solution of simulated intestinal fluid without pancreatin.
Pancreatin-SIF was prepared by dissolving 1 mg Pancreatin (MP Biomedicals) in 10 mL SIF media concentrate (ProSense).
as §2
as §3, with “µM” for “μM”

[2] = test system: IL-23 induced STAT3 signaling in HEK-Blue™ IL-23 cells; experiment: IL-23 induced STAT3 signaling in HEK-Blue IL-23 cells (SEAP reporter); type: cell-based; settings: human IL23 0.25 ng/ml, read-out: pSTAT3
How it was run: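 Secreted SEAP, read at OD 620-655 nm after 45 min QUANTI-Blue development, reports STAT3 activation. Beforehand, cells were exposed to peptide dilutions for 60 min at 37 °C and then to 0.25 ng/ml final human IL-23 overnight, at 10,000 cells/well.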

IC50 [1] [pM]	remaining at 1 h, 1 µM (Pepsin) [%]	remaining at 1 h, 1 µM (Pancreatin) [%]	remaining at 2 h, 1 µM (Pancreatin) [%]	remaining at 4 h, 1 µM (Pancreatin) [%]	SMILES	IC50 [2] [pM]
510	91	100	100	90	CC(=O)NCCCC[C@@H]1NC(=O)[C@H](Cc2c[nH]c3c(C)cccc23)NC(=O)[C@H]([C@@H](C)O)NC(=O)[C@H](CC(N)=O)NC(=O)[C@@H]2CSSC[C@H](NC1=O)C(=O)N[C@@H](Cc1ccc(OCCN(C)C)cc1)C(=O)N[C@@H](Cc1ccc3ccccc3c1)C(=O)N[C@@](C)(CCCCN(C)C)C(=O)N[C@H](C(=O)N[C@@H](CC(N)=O)C(=O)N[C@H](CC(C)C)C(N)=O)CCC(=O)NCCCCC(=O)N2 [compound 54] ([Ava]CNT[Trp(7-Me)]K(Ac)CY(Me2NCH2CH2)[2Nal][αMeLys(Me2)]EN[dL]-NH2; disulfide 2-7; lactam N-11)	2590
420	100	80	78	74	CC(=O)NCCCC[C@@H]1NC(=O)[C@H](Cc2c[nH]c3c(C)cccc23)NC(=O)[C@H]([C@@H](C)O)NC(=O)[C@H](CC(N)=O)NC(=O)[C@@H]2CSSC[C@H](NC1=O)C(=O)N[C@@H](Cc1ccc(OCCN(C)C)cc1)C(=O)N[C@@H](Cc1ccc3ccccc3c1)C(=O)NC(C)(C)C(=O)N[C@H](C(=O)N[C@@H](CC(N)=O)C(=O)N[C@@H](Cc1cccnc1)C(=O)N(C)CC(N)=O)CCCCNC(=O)CCC(=O)N2 [compound 157] (CNT[Trp(7-Me)]K(Ac)CY(Me2NCH2CH2)[2Nal][Aib]KN[3Pal][Sar]-NH2; disulfide 1-6; linker N-10 via Suc)	60
350	90	83	71	57	CC(C)C[C@]1(C)NC(=O)[C@H](Cc2ccc3ccccc3c2)NC(=O)[C@H](Cc2ccc(OCCN(C)C)cc2)NC(=O)[C@@H]2CSSC[C@H](NC(=O)CCCCN(C)C(=O)CC[C@@H](C(=O)N[C@@H](CC(N)=O)C(=O)N[C@@H](CC(N)=O)C(N)=O)NC1=O)C(=O)N[C@@H](CC(N)=O)C(=O)N[C@@H]([C@@H](C)O)C(=O)N[C@@H](Cc1c[nH]c3ccccc13)C(=O)N[C@@H](CCC(N)=O)C(=O)N2 [compound 41] ([NMe5Ava]CNTWQCY(Me2NCH2CH2)[2Nal][αMeL]ENN-NH2; disulfide 2-7; lactam N-11)	1600
